Results as given in US6544727B1, “Methods and devices for the removal of psoralens from blood products” (Cerus Corporation, priority 1995, dated 2003).
Read-outs that look alike come from different tables or passages of the source.

Columns and labels:
[1] = test system: Salmonella tester strain TA100
Summary of the method: (§1)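 Pre-incubation Ames method: overnight culture plus 10% Aroclor 1254-induced rat liver S-9 mix or 0.2M phosphate buffer pH 7.4, with test solutions of 0–500 μg/mL, shaken 20 min at 37° C. Plated in histidine/biotin top agar on minimal glucose agar, revertant colonies counted after 44 h at 37° C against spontaneous-revertant background.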

platelets = experiment: S-59 uptake by platelets and effect of pre-incubation on adsorption kinetics (Example 23); type: in vitro ADME, human; conditions: FIG. 25A
Method: As discussed previously, S-59 uptake by platelets can occur over a period of several hours before saturation occurs. FIG. 25A graphically depicts S-59 (Co=50 μM) uptake by platelets over time (top) and S-59 release by platelets over time (bottom). As shown in the top graph, S-59 equilibrium is achieved at approximately two hours.
This example is directed to the question of whether partitioning of S-59 into platelets has a significant effect on adsorption kinetics. The adsorption kinetics of PC pre-incubated with S-59 for 24 hours prior to adsorption were compared to adsorption kinetics in PC without a pre-incubation period. […] Samples of PC were removed at various time points and analyzed for levels of residual S-59.

[2] = Batch adsorption of 3H-S-59 and photoproducts from illuminated PC, residual radioactivity (Table F); type: physicochemical
Method: The removal of residual S-59 and S-59 photoproducts from illuminated PC by batch adsorption was investigated. […] Two separate platelet units were treated for each adsorbent; one unit was agitated for 3 hours before the platelets were separated from the adsorbent and transferred to another bag, and the other platelet unit was left in contact with the adsorbent for 4 days. Samples were removed from the units before treatment, after 3 hours of contact with the adsorbent, and on day 4.

[3] = Residual S-59 and photoproducts D and E in fresh frozen plasma after batch RD (Tables R, T); type: physicochemical, human
Method: Samples taken from each bag after a 1-hour incubation were analyzed for S-59 and photoproduct removal. The results (n=7) for residual S-59 and photoproducts D and E (two of primary photoproducts formed during illumination, as described above) are presented in Table R (ND=not detectable; 1 hour incubation).
The experiments were performed in the manner described above.

R17 bacteriophage = R17 bacteriophage inactivation at constant concentration, varying doses of UV light; type: cell-based; conditions: 1.0-3.0 J/cm^2, FIGS. 11-17
Method: Compounds of the present invention were also tested at a constant concentration for varying doses of UV light. Three sets of 1.5 mL tubes were prepared containing 0.6mL aliquots of R17 in DMEM (prepared as described above). The compound tested was added at the desired concentration and the samples were vortexed. The samples were then irradiated at intervals of 1.0 J/cm^2, until 3.0 J/cm^2 was reached. Between each 1.0 J/cm^2 interval, 100 μL was removed from each sample and placed in the first corresponding dilution tube, then five sequential dilutions were performed for each compound tested, at all 3 irradiation doses, as described above in this example.
Then 50 μL of Hfr 3000 bacteria was added to each tube, 3 mL of top agar was added and the tube contents were vortexed The contents of each tube was poured into its own LB plate and the plates were incubated overnight at 37° C. Plaques were counted by visual inspection the following morning.

[4] = test system: Salmonella tester strain TA97a
Summary of the method: as §1

Cc1oc2c(C)c3oc(=O)cc(C)c3cc2c1COCCN [Compound 2, 4′-(4-amino-2-oxa)butyl-4,5′,8-trimethylpsoralen]
revertant colonies per plate ([1]; TA100 + S9, 5 μg/plate): −18
revertant colonies per plate ([1]; TA100 + S9, 10 μg/plate): 1
revertant colonies per plate ([1]; TA100 + S9, 50 μg/plate): 115
revertant colonies per plate ([1]; TA100 + S9, 100 μg/plate): 96
revertant colonies per plate ([1]; TA100 − S9, 5 μg/plate): 103
revertant colonies per plate ([1]; TA100 − S9, 10 μg/plate): 46
revertant colonies per plate ([1]; TA100 − S9, 50 μg/plate): 182
revertant colonies per plate ([1]; TA100 − S9, 100 μg/plate): 121
time to S-59 uptake equilibrium in platelets (platelets): approximately two
counts as 3H exchanged water ([2]; 3H-S-59, illuminated PC): about 10%
counts associated with plasma macromolecules ([2]; 3H-S-59, illuminated PC): about 18%
counts associated with platelet macromolecules ([2]; 3H-S-59, illuminated PC): about 15%
non-adsorbed radioactivity ([2]; 3H-S-59, illuminated PC treated with adsorbent for 4 days): 36-37%
residual S-59 in fresh frozen plasma ([3]; RD with […] g Dowex XUS 43493, approximately one hour incubation): ≤ 0.75 µM
Concentration in plasma, Pre-Removal ([3]; Table R, 150 μM S-59 in plasma after 3 J/cm^2 UVA, before RD): 83.30 µM
Concentration in plasma, Pre-removal (±SD) ([3]; Table T, 150 μM S-59 in plasma after 3 J/cm^2 UVA, before RD): 88.7 ± 4.1 µM

Cc1oc2c(C)c3oc(=O)cc(C)c3cc2c1CNCCCCN [Compound 6, 4′-(6-amino-2-aza)hexyl-4,5′,8-trimethylpsoralen]
R17 inactivation efficiency compared with AMT (in words) (R17 bacteriophage): more efficient at inactivating R17 than was AMT

Cc1oc2c(C)c3oc(=O)cc(C)c3cc2c1CN [AMT, 4′-Aminomethyl-4,5′,8-trimethylpsoralen, reference compound]
revertant colonies per plate ([4]; TA97a + S9, 0.1 μg/plate): −23
revertant colonies per plate ([4]; TA97a + S9, 0.5 μg/plate): 32
revertant colonies per plate ([4]; TA97a + S9, 1 μg/plate): 32
revertant colonies per plate ([4]; TA97a + S9, 5 μg/plate): 149
revertant colonies per plate ([4]; TA97a − S9, 0.1 μg/plate): 14
revertant colonies per plate ([4]; TA97a − S9, 0.5 μg/plate): 9
revertant colonies per plate ([4]; TA97a − S9, 1 μg/plate): 54
revertant colonies per plate ([4]; TA97a − S9, 5 μg/plate): 73
